# Assay: Solubility relative to 100 g of water at 20° C.
# Format: physicochemical
# Settings: per 100 g of water
row,SMILES,solubility relative to 100 g of water
1,"NNC(=O)CCCCCCCCCCCCCCCCCCC(=O)NN [1,18-octadecane dicarbohydrazide]",≤ 0.1 g
2,"NNC(=O)c1ccc(C(=O)NN)cc1 [Dihydrazide compound-1, terephthalic acid dihydrazide]",≤ 0.01 g
3,"NNC(=O)CCCCCCCCCCC(=O)NN [Dihydrazide compound-2, 1,10-dodecane diacid dihydrazide]",≤ 0.01 g
4,"NNC(=O)CCCCC(=O)NN [Dihydrazide compound-3, adipic acid dihydrazide, reference compound]",9.1 g
5,NNC(=O)C(=O)NN [oxalic acid dihydrazide],≤ 0.2 g

# Assay: Vapor pressure at 20° C.
# Format: physicochemical
# Settings: not given
row,SMILES,vapor pressure
1,"CC(C)(c1ccccc1)c1cc(-n2nc3ccccc3n2)c(O)c(C(C)(C)c2ccccc2)c1 [Tinuvin 234, 2-(2H-benzotriazol-2-yl)-4,6-bis(1-methyl-1-phenylethyl)phenol]",2.0×10^−10 Pa
